Assay [1] concerns tumor. The following applies: adult Balb/C mice model; cited from earlier work.
For assay [2], the system named is adenocarcinoma pancreatic cancer cells, cell line 2. The assay can be described thus: Radius cell migration assay, cell line 2. The class given is cell-based, human. Particulars: cell line 2, Nerofe 10 μg/ml. Here is the method: (§1) Cell Migration Assay of Human Cancer Cell
(§2) Human adenocarcinoma pancreatic cancer cells were grown until reaching 70-80% cell density in the flask and detached from the flask using Trypsin EDTA as described above. Cells suspended in medium and Trypsin were then centrifuged 10 minutes at 300 g (4° C.) and re-suspended in 2 ml fresh medium (as described for the BrdU incorporation assay above).
(§3) The cells were then fluidized and 3 ml medium were added such that the cells were suspended in a volume of 5 ml medium and subsequently counted and diluted to a concentration of 150,000 or 300,000 cells/ml medium.
(§4) Alternatively, Dulbecco's modification of Eagle's medium (DMEM, Biological Industries cat no. 01-055-1A) supplemented with 50 ml FBS (Biological industries cat no. 04-121-1A), 5 ml Hepes 1M (Biological industries cat no. 03-025-1C), 0.5 ml Amphotericin B 2500 μg/ml (Biological industries cat no. 03-029-1) and 5 ml Gentamycin sulfate 50 mg/ml (Biological industries cat no. 03-035-1) was used for cell culturing and re-suspension and the cells were re-suspended to a final concentration of 100,000 cells/ml medium.
(§5) A radius 96-well Cell Migration Assay plate (Cell Biolabs Inc. cat no. CBA-126) was prepared according to the manufacturer's protocol and each well was loaded with 100 μl cells such that each well contained 10,000, 15,000 or 30,000 cells. […]

Assay [3] has as its system soluble ST2 (sST2) secreted by human adenocarcinoma pancreatic cancer cells. The assay can be described thus: Soluble ST2 (sST2) ELISA assay, pancreatic cancer cells. The class given is cell-based. The following applies: 1-50 μg/ml peptide; all tested cells; FIG. 2. On the procedure: (§6) Soluble ST2 (sST2) ELISA Assay
(§7) Human adenocarcinoma pancreatic cancer cells and human breast cancer cells (MDA-MB-231) were grown until reaching 70-80% cell density in the flask and were detached from the flask using Trypsin EDTA as described above. Cells suspended in medium and Trypsin were then centrifuged and re-suspended in 2 ml fresh medium (as described for the BrdU incorporation assay above).
(§8) The cells were then fluidized and 3 ml medium were added to the cell suspension such that the cells were re-suspended in a total volume of 5 ml medium. The cells were then counted and diluted to a concentration of 50,000 cells/ml medium. Cells at 2 ml per plate were placed in each well of a 6 well plate such that each well contained 100,000 cells. The cells were incubated over-night in 37° C. in the incubator.
(§9) The supernatant was discarded and replaced by 1 ml RPMI medium containing 2.5% FBS. The cells were then incubated for 24 or 48 hours in 37° C. in the presence of the Nerofe peptide at the final concentrations of 1, 10, 25 and 50 μg/ml. […]
(§10) Detecting of sST2 was performed by diluted anti-sST2 Affinity purified antibody (Genmed, project ID 35622 B-Form) 1:100 in diluent (0.05% TW-20, 0.1% BSA in PBS), where 100 μl of the detection antibody was loaded on each well. […] Plate absorbance was performed in a microplate reader at O.D. of 450/590 nm.

In assay [4] the test system is adenocarcinoma pancreatic cancer cells, cell line 1. Nature of the assay: Radius cell migration assay, cell line 1. The class given is cell-based, human. Particulars: cell line 1, Nerofe 10 μg/ml. On the procedure:
as §1, §2, §3, §4, §5

Assay [5] relates to soluble ST2 (sST2) in human breast cancer cells (MDA-MB-231). The assay can be described thus: Soluble ST2 (sST2) ELISA assay, breast cancer cells. Particulars: MDA-MB-231, similar assay conditions, data not shown. In kind it is cell-based. Here is the method:
as §6, §7, §8, §9, §10
For orientation: In an ELISA, binding on a coated surface is turned into a signal by an enzyme label.

For assay [6], the system named is various cancer cells of hematopoietic origin. The following applies: inhibitory effect defined as at least 40% inhibition vs control; cited from earlier work.
Assay [7] has as its system vascular endothelial growth factor (VEGF). Nature of the assay: Clinical study: serum level of VEGF in cancer patients (ELISA). In kind it is in vivo, human. Here is the method:
Therefore a clinical study that follows the serum levels of VEGF was conducted in cancer patients that were administered with the peptide Nerofe. Patients participating in the study were diagnosed with various cancer types, namely colon, colorectal, spindle cell neoplasm, pancreas, small intestine, non small cell lung carcinoma, hepatic carcinoma, colon adenocarcinoma and rectal adenocarcinoma, as summarized in Table 3 below.
Patients were included in at least one of Cohort 1, Cohort 2, Cohort 3 and Cohort 4 and received doses of […] (about 0.16, 0.32, 0.64 or 1.28 mg/kg body weight) of the peptide Nerofe, respectively, at the indicated time points.
Serum levels of VEGF were measured in blood samples obtained form these patients using an Elisa kit for human VEFG (R&D systems) and the results are presented in FIG. 5 (for the patients of Cohort 1 and Cohort 2) and in FIG. 6 (for the patients of Cohort 3 and Cohort 4).

In assay [8] the test system is human adenocarcinoma pancreatic cancer cells. The assay can be described thus: Cell migration assay after 48 hours pre-incubation with peptide. In kind it is cell-based. The following applies: 25 μg/ml peptide for 48 hours before assay; 27 hours vs 1 hour; FIG. 3, FIG. 4. Here is the method:
as §2, §4
Alternatively, the supernatant was discarded and replaced by 200 μl DMEM containing 2.5% 1-BS and the required treatment, namely control (without Nerofe), 10, 25 or 50 μg/ml Nerofe. The cells were then incubated at 37° C. for 48 hours in an incubator.
When the cells reached 70-80% density, the supernatant was discarded and the gel was removed from the center of the well, without affecting the attachment of cells as described in the manufacturer's protocol. […]

For assay [9] the test system is unchanged. Nature of the assay: Bromodeoxyuridine (BrdU) incorporation assay (cell proliferation). The class given is cell-based. Particulars: 1, 10, 25 and 50 μg/ml peptide vs control; no correlation with concentration. Here is the method:
Bromodeoxyuridine (BrdU) Incorporation Assay
Human adenocarcinoma pancreatic cancer cells and human breast cancer cells were grown until reaching 70-80% density in the flask and detached from the flask using Trypsin EDTA as described above (the above protocol for cell culturing was used until the step of adding 10 ml medium to the Trypsin-treated cells). The cells suspended in medium and Trypsin were then transferred into a 50 ml conical tube and centrifuged at 300 g (10 min, 4° C.). The supernatant was then discarded and the cell pellet was re-suspended in fresh medium (2 ml medium prepared as described above).
The cells were then fluidized and additional 3 ml medium were added to the cell suspension such that the cells were re-suspended in a total volume of 5 ml medium. The cells were then counted and diluted to a concentration of 20,000 cells/ml medium. Next, the cells were placed in a 96 well plate (Nunc cat no. 167008), placing 100 μl cell suspension per well, such that each well contained 2000 cells. The cells were then incubated over-night in 37° C. in the incubator.
The concentrated Nerofe peptide was suspended in a total volume of 100 μl medium and added to the assayed cells in the 96-well plate to a final concentration of 1, 10, 25 and 50 μg/ml. Control (background) assays were performed in the absence of the peptide, namely, 100 μl medium was added to control cells. […]

The subject of assay [10] is tissue plasminogen activator (TPA) secreted by human adenocarcinoma pancreatic cancer cells. The assay can be described thus: Tissue type plasminogen activator (TPA) human ELISA assay on cell supernatant. The following applies: 1-50 μg/ml peptide, 24 hours; cell line 1, 2 and 3; FIG. 1. The class given is cell-based. On the procedure:
Tissue Type Plasminogen Activator (TPA) Human ELISA Assay
Human adenocarcinoma pancreatic cancer cells were grown until reaching 70-80% density in the flask and were detached from the flask using Trypsin EDTA as described above. Cells suspended in medium and Trypsin were then centrifuged and re-suspended in 2 ml fresh medium (as described for the BrdU incorporation assay, above).
The cells were then fluidized and 3 ml medium were added to the cell suspension such that the cells were re-suspended in a total volume of 5 ml medium. Cells were counted and diluted to a concentration of 50,000 cells/ml medium. Next, the cells were placed in each well of a 6 well plate (Nunc cat no. 140675), by placing 2 ml cells culture per well such that each well contains 100,000 cells. The cells were next incubated over-night at 37° C. in the incubator.
The supernatant was discarded and replaced by 1 ml RPMI medium containing 2.5% FBS. Cells were then incubated for 24 hours or 48 hours at 37° C. in the presence of the Nerofe peptide at the final concentrations of 1, 10, 25 and 50 μg/ml. […]
Next, a TPA ELISA assay was performed as follows: the supernatant was thawed and kept on ice, then diluted 1:15 with the TPA diluents provided with the kit (x1N, Abcam cat no. ab108914). The procedure was continued according to the manufacturer's protocol and ELISA plates were read at an optical density (O.D.) of 450/590.

“Also recorded” adds a separate entry of the source. Where no end group is shown, it is not given here.

As for “LHLWLSGEPVQSSGTKDMRSKSDSKRVSDKQLISKAVWWTFFLPSTLWERK (isolated synthetic peptide (fragment of T 101 peptide)) [T101 peptide, Full length thymus peptide, devoid of its N-terminal 33 amino acids; 51 amino acids long]”, the tumor size result in [1] is given as “significantly reduce tumor size”.

For the sequence “WWTFFLPSTLWERK [Nerofe, C-terminal 14 all D amino acid fragment of the full T101 peptide, …]”, the figures for the “% inhibition of migration” value in [2] (8 hours) and in [4] (8 hours) were 82% and 30%, respectively. Besides, the “% Migration after 8 hours” value in assay [2] (control = 100) worked out at 18%; in assay [4] (control = 100), 70%. Further, the “level of sST2 compared to cells not incubated with the peptide” value in assay [3] is reported as “lower levels of sST2; also recorded: dose-dependent”. The “decrease in the level of sST2” value in assay [5] is recorded as “about 80%”. Also, the cell proliferation result in assay [6] is “inhibit cell proliferation”. Further, in [7] (cancer patients, Cohort 1 and Cohort 2, 6 or 12 mg/m^2, FIG. 5), the “change of serum level of VEGF” value was “increase”. Further, the “decrease of serum level of VEGF” value in [7] (cancer patients, Cohort 3 and Cohort 4, 24 or 48 mg/m^2, FIG. 6) is reported as 30-40%. Besides, in assay [7] (patients 13 (small intestine) and 19 (rectal adenocarcinoma)), the “decrease of serum level of VEGF in single patients” value is “particularly significant”. For the same sequence, the “migration of cells into cell-free area” value in assay [8] is “substantially inhibited”. Also, in [9], the “inhibition of BrdU incorporation” value is given as “up to 26%”. For the same sequence, the “level of secreted TPA compared to control cells” value in [10] was “lower levels of secreted TPA”.

The values above are taken from patent US9878015B2, “Pharmaceutical compositions and methods for the treatment of metastatic cancer” (IMMUNE SYSTEM KEY LTD., priority 2013, dated 2018).
